Test results taken from patent US9636299B2, “Method for treating diabetic retinopathy” (XAVIER UNIVERSITY OF LOUISIANA, priority 2012, dated 2017).
Residues, ends and D or L forms follow the SMILES beside them.

What was measured:
[1] = tested on: VEGF; assay: Streptozotocin-induced diabetic mice, retinal VEGF protein by Western blot; format: in vivo, mouse; settings: 14 days
Protocol: (§1) Streptozotocin (STZ) induced diabetes. Twelve week old C57Bl/6 mice were used for this study. Mice were induced to have diabetes by intraperitoneal injection of 170 μg/g of streptozotocin (Sigma Aldrich, St. Louis, Mo.). Controls were injected with a vehicle (0.01M sodium citrate buffer). On the third day after STZ treatment, mice tail veins were bled to test the hyperglycemic status using blood sugar detection kit (Lifescan; Johnson & Johnson, Milpitas, Calif.). Mice with blood sugar levels of >300 mg/dL on the third day after STZ treatment were considered diabetic. Eye drop treatment containing 1% apoEdp or vehicle PBS was continued 4 times a day for 14 consecutive days. Intra-peritoneal (i/p) injection containing 40 mg/kg of apoEdp or vehicle control PBS was administered once daily for 14 consecutive days. On the 15th day post-treatment, mice were euthanized, their eyes enucleated, and the retinas dissected out to use for mRNA or Western blot analysis.
Upregulation of VEGF expression is reported as one of the reasons for the loss of tight junction proteins in diabetic mice (20).
(§2) Increased vascular permeability in diabetic retinopathy (DR) is reported to result in a concomitant increase of VEGF. The VEGF pathway is known to play a role in breakdown of the BRB through a mechanism involving the down regulation of tight junction proteins in the retinal microvasculature (20).

[2] = tested on: LRP-1; assay: LRP-1 expression in high sugar induced hRMECs (Western blot); format: cell-based, human; settings: high sugar induced serum starved hRMECs, 1% apoEdp, 24 hours
Protocol: Using an anti-LRP-1 antibody (human LRP-1; 1:1000, Santa Cruz Biotechnology, CA) and Western blot analysis, selective inhibition of LRP-1 by apoEdp treatment (24 hours) in serum starved hRMECs cells was shown.

[3] = Corneal permeability of topical 1% apoEdp eye drops in mice, UPLC-MS of pooled aqueous and vitreous humor; format: in vivo; design: key to Meas'd conc. / Total: *: No peak detected
Protocol: The apoEdp peptide (SEQ ID NO:3) is rich in cationic amino acids, and the inventor postulated that it may cross the cornea into the anterior and posterior chambers of the eye. […] Thus, apoEdp can be used for non-invasive treatment of posterior eye diseases.
A one percent (1%) solution comprising apoEdp in PBS was prepared. This solution was applied bilaterally via eyedropper to the eyes of mice (n=4). The mice were sacrificed at 0, 1, 2, or 3 hours after application of the solution, and the eyes were enucleated. The aqueous and vitreous humor from each eye was collected and pooled, mixed with 1 mL of 0.1% formic acid solution, and allowed to stand for 5 minutes. The samples were then filtered with a 0.2 μm filter and analyzed with the Acquity UPLC system (Waters Corp., Milford, Mass.) with mass spectrophotometric detection.
Initially, the mass range for the peptide was scanned several peaks corresponding to different charged states of the peptide were found. These peaks included 484.9 m/z, 604.4 m/z, and 805.6 m/z. The 484.9 peak was used for the analysis because it was the strongest peak. For the UPLC analysis, a 2.1 mm×100 mm×1.7 μm BEH300 C4 column was used. A two-component mobile phase was used with component 1 (C1): 0.1% formic Acid, and Component 2 (C2): Acetonitrile with 0.1% formic acid. The flow rate was 0.2 mL/min and gradient elution was used with a linear gradient (see TABLE 2). Retention time for the peptide was 4.6 minutes.

[4] = tested on: heparanase; assay: Streptozotocin-induced diabetic mice, heparanase expression; format: in vivo, mouse; settings: either 14-day eye drop application or systemic i/p injection
Protocol: as §1, §2

[5] = OD (right eye), 0 h after topical 1% apoEdp
[6] = OD (right eye), 1 h after topical 1% apoEdp
[7] = OD (right eye), 2 h after topical 1% apoEdp
[8] = OD (right eye), 3 h after topical 1% apoEdp
[9] = OS (left eye), 1 h after topical 1% apoEdp
[10] = OS (left eye), 2 h after topical 1% apoEdp
[11] = OS (left eye), 3 h after topical 1% apoEdp

CC(=O)N[C@@H](CC(C)C)C(=O)N[C@@H](CCCNC(=N)N)C(=O)N[C@@H](CCCCN)C(=O)N[C@@H](CC(C)C)C(=O)N[C@@H](CCCNC(=N)N)C(=O)N[C@@H](CCCCN)C(=O)N[C@@H](CCCNC(=N)N)C(=O)N[C@@H](CC(C)C)C(=O)N[C@@H](CC(C)C)C(=O)N[C@@H](CC(C)C)C(=O)N[C@@H](CCCNC(=N)N)C(=O)N[C@@H](CCCCN)C(=O)N[C@@H](CC(C)C)C(=O)N[C@@H](CCCNC(=N)N)C(=O)N[C@@H](CCCCN)C(=O)N[C@@H](CCCNC(=N)N)C(=O)N[C@@H](CC(C)C)C(=O)N[C@@H](CC(C)C)C(N)=O [apoEdp, Ac-LRKLRKRLLLRKLRKRLL-amide] (Ac-LRKLRKRLLLRKLRKRLL-NH2)
VEGF expression of retina ([1]; eye drop treatment, vs untreated diabetic): not significantly different from untreated diabetic mice | VEGF expression of retina ([1]; i/p injection of apoEdp, vs diabetic untreated): significantly reduced VEGF expression | Upregulation of LRP-1 [2]: inhibiting the upregulation | Meas'd conc. [3, 5]: * | Total [3, 5]: * | Meas'd conc. [3, 6]: 0.022 µg/mL | Total [3, 6]: 22.2 ng | Meas'd conc. [3, 7]: 0.006 µg/mL | Total [3, 7]: 5.9 ng | Meas'd conc. [3, 8]: 0.036 µg/mL | Total [3, 8]: 36.3 ng | Total ([3]; OS (left eye), 0 h after topical 1% apoEdp): * | Meas'd conc. ([3]; OS (left eye), 0 h after topical 1% apoEdp in PBS, pooled aqueous and vitreous humor): * | Meas'd conc. [3, 9]: * | Total [3, 9]: * | Meas'd conc. [3, 10]: 0.004 µg/mL | Total [3, 10]: 3.89 ng | Meas'd conc. [3, 11]: 0.058 µg/mL | Total [3, 11]: 58.08 ng | Detection of topically-applied apoEdp inside the eye (cornea penetration) ([3]; topical 1% apoEdp): detected inside the eye in as little as one hour after application | Increased expression of heparanase [4]: reversed increased expression of heparanase
